Earlier results as cited in US20050260263A1, “Sustained release formulation for sparingly soluble main drugs” (Panion & BF Biotech Inc., priority 2004, published 2005).
Like-named read-outs stand apart in the source and are kept apart here.

Row | Compound | Solubility (water) | Solubility (gastric fluid) | Solubility (region of the lower intestine (pH 6 to 8)) | Solubility (upper region of the small intestine (pH 5.0))
1 | CC[C@H]1OC(=O)[C@H](C)[C@@H](O[C@H]2C[C@@](C)(OC)[C@@H](O)[C@H](C)O2)[C@H](C)[C@@H](O[C@@H]2O[C@H](C)C[C@H](N(C)C)[C@H]2O)[C@](C)(O)C[C@@H](C)C(=O)[C@H](C)[C@@H](O)[C@]1(C)O [Erythromycin] | only slightly soluble |  |  | 
2 | CC[C@H]1OC(=O)[C@H](C)[C@@H](O[C@H]2C[C@@](C)(OC)[C@@H](O)[C@H](C)O2)[C@H](C)[C@@H](O[C@@H]2O[C@H](C)C[C@H](N(C)C)[C@H]2O)[C@](C)(OC)C[C@@H](C)C(=O)[C@H](C)[C@@H](O)[C@]1(C)O [clarithromycin] |  | very soluble | poorly soluble | fairly soluble
